In publication PMC6099110, “Valepotriates From the Roots and Rhizomes of Valeriana jatamansi Jones as Novel N-Type Calcium Channel Antagonists” (Frontiers in Pharmacology, 2018):

System: T1, Cav2.2 N-type voltage-gated calcium channel
T1 construct: gene CACNA1B
Experiment: two-electrode voltage clamp of Cav2.[…] expressed in Xenopus oocytes, dose-response
Type: cell-based

| SMILES | EC50 |
| --- | --- |
| CC(=O)OCC1=CO[C@@H](OC(=O)CC(C)C)[C@H]2C1=C[C@H](OC(=O)CC(C)C)[C@]2(O)COC(=O)C(OC(=O)CC(C)C)C(C)C (stereo partly drawn) [compound 1, (1S, 7S, 8R, 9S)-11-acetoxy-10-[a-(isovaleroxy)isovaleroxy]-1,7-diisovaleroxyvaltrate hydrin] | 3.3 µM |
| CC(=O)OCC1=CO[C@@H](OC(=O)CC(C)(C)OC(C)=O)[C@H]2C1=C[C@H](OC(=O)CC(C)C)[C@]2(O)COC(=O)CC(C)C [compound 3, valtrate hydrin B8] | 4.8 µM |
